Laboratory results reported in the NIST ThermoML archive (doi:10.1016/j.fluid.2016.02.009).
± gives the expanded uncertainty stated by the source.

Conditions: Liquid, Vibrating tube method

CCOC(C)(C)C [2-ethoxy-2-methylpropane]
mass density (308.15 K, 35000 kPa): 761.9 ± 0.56 kg/m3
mass density (308.15 K, 40000 kPa): 766.03 ± 0.6 kg/m3
mass density (308.15 K, 45000 kPa): 769.97 ± 0.64 kg/m3
mass density (308.15 K, 50000 kPa): 773.76 ± 0.68 kg/m3
mass density (308.15 K, 55000 kPa): 777.4 ± 0.71 kg/m3
mass density (308.15 K, 60000 kPa): 780.9 ± 0.75 kg/m3
mass density (308.15 K, 65000 kPa): 784.29 ± 0.78 kg/m3
mass density (313.15 K, 100 kPa): 720.14 ± 0.3 kg/m3
mass density (313.15 K, 5000 kPa): 726.68 ± 0.34 kg/m3
mass density (313.15 K, 10000 kPa): 732.78 ± 0.37 kg/m3
mass density (313.15 K, 15000 kPa): 738.45 ± 0.41 kg/m3
mass density (313.15 K, 20000 kPa): 743.71 ± 0.45 kg/m3
mass density (313.15 K, 25000 kPa): 748.69 ± 0.48 kg/m3
mass density (313.15 K, 30000 kPa): 753.36 ± 0.53 kg/m3
mass density (313.15 K, 35000 kPa): 757.81 ± 0.57 kg/m3
mass density (313.15 K, 40000 kPa): 762.03 ± 0.61 kg/m3
mass density (313.15 K, 45000 kPa): 766.08 ± 0.65 kg/m3
mass density (313.15 K, 50000 kPa): 769.94 ± 0.68 kg/m3
mass density (313.15 K, 55000 kPa): 773.66 ± 0.72 kg/m3
mass density (313.15 K, 60000 kPa): 777.23 ± 0.75 kg/m3
mass density (313.15 K, 65000 kPa): 780.69 ± 0.79 kg/m3
mass density (318.15 K, 100 kPa): 714.82 ± 0.3 kg/m3
mass density (318.15 K, 5000 kPa): 721.59 ± 0.34 kg/m3
mass density (318.15 K, 10000 kPa): 727.94 ± 0.37 kg/m3
mass density (318.15 K, 15000 kPa): 733.82 ± 0.41 kg/m3
mass density (318.15 K, 20000 kPa): 739.27 ± 0.45 kg/m3
mass density (318.15 K, 25000 kPa): 744.39 ± 0.49 kg/m3
mass density (318.15 K, 30000 kPa): 749.2 ± 0.53 kg/m3
mass density (318.15 K, 35000 kPa): 753.76 ± 0.57 kg/m3
mass density (318.15 K, 40000 kPa): 758.08 ± 0.61 kg/m3
mass density (318.15 K, 45000 kPa): 762.23 ± 0.65 kg/m3
mass density (318.15 K, 50000 kPa): 766.19 ± 0.69 kg/m3
mass density (318.15 K, 55000 kPa): 769.98 ± 0.73 kg/m3
mass density (318.15 K, 60000 kPa): 773.61 ± 0.76 kg/m3
mass density (318.15 K, 65000 kPa): 777.13 ± 0.8 kg/m3
mass density (323.15 K, 100 kPa): 709.43 ± 0.3 kg/m3
mass density (323.15 K, 5000 kPa): 716.51 ± 0.34 kg/m3
mass density (323.15 K, 10000 kPa): 723.13 ± 0.38 kg/m3
mass density (323.15 K, 15000 kPa): 729.2 ± 0.42 kg/m3
mass density (323.15 K, 20000 kPa): 734.81 ± 0.45 kg/m3
mass density (323.15 K, 25000 kPa): 740.06 ± 0.49 kg/m3
mass density (323.15 K, 30000 kPa): 745.02 ± 0.54 kg/m3
mass density (323.15 K, 35000 kPa): 749.69 ± 0.58 kg/m3
mass density (323.15 K, 40000 kPa): 754.13 ± 0.62 kg/m3
mass density (323.15 K, 45000 kPa): 758.36 ± 0.66 kg/m3
mass density (323.15 K, 50000 kPa): 762.39 ± 0.7 kg/m3
mass density (323.15 K, 55000 kPa): 766.26 ± 0.74 kg/m3
mass density (323.15 K, 60000 kPa): 770 ± 0.77 kg/m3
mass density (323.15 K, 65000 kPa): 773.58 ± 0.81 kg/m3
mass density (328.15 K, 100 kPa): 703.95 ± 0.3 kg/m3
mass density (328.15 K, 5000 kPa): 711.38 ± 0.34 kg/m3
mass density (328.15 K, 10000 kPa): 718.21 ± 0.38 kg/m3
mass density (328.15 K, 15000 kPa): 724.52 ± 0.42 kg/m3
mass density (328.15 K, 20000 kPa): 730.3 ± 0.46 kg/m3
mass density (328.15 K, 25000 kPa): 735.75 ± 0.5 kg/m3
mass density (328.15 K, 30000 kPa): 740.83 ± 0.54 kg/m3
mass density (328.15 K, 35000 kPa): 745.64 ± 0.58 kg/m3
mass density (328.15 K, 40000 kPa): 750.18 ± 0.63 kg/m3
mass density (328.15 K, 45000 kPa): 754.48 ± 0.67 kg/m3
mass density (328.15 K, 50000 kPa): 758.63 ± 0.71 kg/m3
mass density (328.15 K, 55000 kPa): 762.55 ± 0.74 kg/m3
mass density (328.15 K, 60000 kPa): 766.37 ± 0.78 kg/m3
mass density (328.15 K, 65000 kPa): 770.52 ± 0.82 kg/m3
mass density (333.15 K, 100 kPa): 698.45 ± 0.3 kg/m3
mass density (333.15 K, 5000 kPa): 706.19 ± 0.34 kg/m3
mass density (333.15 K, 10000 kPa): 713.35 ± 0.38 kg/m3
mass density (333.15 K, 15000 kPa): 719.84 ± 0.42 kg/m3
mass density (333.15 K, 20000 kPa): 725.83 ± 0.46 kg/m3
mass density (333.15 K, 25000 kPa): 731.42 ± 0.5 kg/m3
mass density (333.15 K, 30000 kPa): 736.64 ± 0.55 kg/m3
mass density (333.15 K, 35000 kPa): 741.54 ± 0.59 kg/m3
mass density (333.15 K, 40000 kPa): 746.21 ± 0.63 kg/m3
mass density (333.15 K, 45000 kPa): 750.65 ± 0.67 kg/m3
mass density (333.15 K, 50000 kPa): 754.86 ± 0.71 kg/m3
mass density (333.15 K, 55000 kPa): 758.88 ± 0.75 kg/m3
mass density (333.15 K, 60000 kPa): 762.77 ± 0.79 kg/m3
mass density (333.15 K, 65000 kPa): 766.51 ± 0.83 kg/m3
